# Key:
# [1] = target: Skeletal muscle myosin-2 (HMM); experiment: Steady-state basal and actin-activated Mg2+-ATPase (NADH-coupled assay); assay type: biochemical, Rabbit
# Procedure: Rabbit fast skeletal muscle heavy meromyosin (HMM) was prepared as described by [Margossian and Lowey (1982)]. Porcine β-cardiac myosin was prepared essentially as described by [Pant et al. (2009)] and [Jacques et al. (2008)] and further purified by gel filtration. S1 and HMM fragments were produced by proteolytic digestion of the full-length proteins with 0.05 mg/ml papain (10 min, 25°C) for S1 and with 0.1 mg/ml TLCK-treated α-chymotrypsin (15 min, 25°C) for HMM. Reactions were stopped with specific protease inhibitors for papain (10 µM E−64) and chymotrypsin (10 µM chymostatin, 1 mM benzamidine). Proteolytic fragments were further purified by actin-coprecipitation. Pellets were washed twice and myosin was extracted from the pellets using ATP containing buffer. Gel filtration was used to further increase purity of myosin S1 and HMM fragments. His-tagged motor domain constructs of Dd myosin-2, Dd myosin-1B, Dd myosin-1C, Dd myosin-1D, Dd myosin-1E, Dd myosin-5b fused to two Dd α-actinin repeats substituting the light-chain binding domains ([Anson et al., 1996]) were expressed in Dd AX3-ORF + cells and purified by Ni^2+-chelate affinity chromatography ([Manstein and Hunt, 1995]).
# Basal and actin-activated Mg^2+-ATPase activities were measured using the NADH-coupled assay described previously ([Furch et al., 1998]) adapted for higher throughput screens for a temperature controlled plate reader (Multiscan FC, Thermo Scientific, Waltham, MA) at 25°C. […] Control measurements were carried out in the absence of drug, as well as in the presence of according concentrations of the non-binding (−)-enantiomer EMD 57439 to account for possible absorption effects. […] Data points are mean values from 3 to 5 independent experiments. Error bars indicate standard deviations.
# [2] = target: T1, Dd myosin-2 ΔSH3 (lacks residues 33–79) (Dictyostelium discoideum, UniProt P08799, DEL34-80); experiment: as above; assay type: biochemical
# T1 construct: Dd myosin-2 ΔSH3, a recombinant motor domain construct that lacks this subdomain; made in house
# Excerpt: (§1) Initial blind docking to homology models of the β-cardiac myosin motor domain in the post-rigor state indicated preferred binding of the drug to a region near the small N-terminal, SH3-like βbarrel subdomain. Important contacts are predicted to involve the SH3-like subdomain (residues 34–72) and two α-helices (residues 20–28 and 98–111). […] The sets of binding poses differ mainly in the orientation of the dimethylated catechol group, occupying either of the two possible branches of the Y, while the thiadiazinone moiety appears little affected and resides in the root of the Y shaped cavity (Figure 2A,B). Potential residues involved in the binding of the thiadiazinone and tetrahydroquinoline moieties of the compound include Arg23, Asp85, Lys86, Asp107, Arg108, and Ser111. The dimethylated catechol moiety is mainly bound by residues Lys34, Lys48, and Gln79, and thus, interacts with the SH3-like β-barrel.
# Basal and actin-activated Mg^2+-ATPase activities were measured using the NADH-coupled assay described previously ([Furch et al., 1998]) adapted for higher throughput screens for a temperature controlled plate reader (Multiscan FC, Thermo Scientific, Waltham, MA) at 25°C. EMD 57033 was added to the reaction mixture in the absence of nucleotide and incubated before the reaction was started by the addition of ATP. Control measurements were carried out in the absence of drug, as well as in the presence of according concentrations of the non-binding (−)-enantiomer EMD 57439 to account for possible absorption effects. […] Data points are mean values from 3 to 5 independent experiments. Error bars indicate standard deviations.
# Dd myosin-2 ΔSH3 = target: T2, Dd myosin-2 ΔSH3 (Dictyostelium discoideum, UniProt P08799, DEL33-79); experiment: In vitro motility assay (actin filament sliding); assay type: biochemical; details: 100 µM EMD 57033
# T2 construct: Dd myosin-2 ΔSH3, a recombinant motor domain construct that lacks this subdomain; made in house
# Excerpt: as §1
# Actin-sliding motility was performed at 20°C using an Olympus IX81 (Olympus, Hamburg, Germany) inverted fluorescence microscope as described previously ([Fujita-Becker et al., 2005]). Average sliding velocities were determined from the Gaussian distribution of automatically tracked actin filaments using DiaTrack 3.01 (Semasopht, Chavannes, Switzerland) and Origin 7.0 (OriginLab Corporation, Northampton, MA). Errors indicate standard deviations.
# T1 sequence (P08799 other isoform, or with tags, fused parts or gaps DEL34-80): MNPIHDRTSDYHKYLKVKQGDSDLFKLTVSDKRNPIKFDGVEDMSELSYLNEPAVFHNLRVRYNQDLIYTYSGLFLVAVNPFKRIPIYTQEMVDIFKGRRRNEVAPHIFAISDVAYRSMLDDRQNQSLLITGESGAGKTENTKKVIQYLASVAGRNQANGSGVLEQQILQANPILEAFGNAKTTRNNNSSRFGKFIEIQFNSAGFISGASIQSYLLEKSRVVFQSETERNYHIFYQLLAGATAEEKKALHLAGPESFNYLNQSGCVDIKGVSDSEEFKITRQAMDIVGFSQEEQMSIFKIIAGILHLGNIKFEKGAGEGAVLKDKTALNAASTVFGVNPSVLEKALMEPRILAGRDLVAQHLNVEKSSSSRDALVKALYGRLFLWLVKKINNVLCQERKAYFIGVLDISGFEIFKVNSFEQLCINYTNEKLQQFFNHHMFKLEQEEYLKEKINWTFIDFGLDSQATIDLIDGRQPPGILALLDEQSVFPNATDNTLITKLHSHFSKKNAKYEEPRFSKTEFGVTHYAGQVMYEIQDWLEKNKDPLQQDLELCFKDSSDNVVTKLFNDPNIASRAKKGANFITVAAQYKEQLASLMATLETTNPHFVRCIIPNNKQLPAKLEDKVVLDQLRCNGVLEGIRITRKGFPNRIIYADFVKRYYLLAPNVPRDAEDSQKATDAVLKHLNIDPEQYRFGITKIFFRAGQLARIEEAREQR
# T2 sequence (P08799 other isoform, or with tags, fused parts or gaps DEL33-79): as the sequence (P08799 other isoform, or with tags, fused parts or gaps DEL34-80) above
compound,measurement,setting,value
COc1ccc(C(=O)N2CCCc3cc(C4=NNC(=O)SC4C)ccc32)cc1OC (centres unmarked) [EMD 57033],AC50,[1],15.1 µM
same,Activation potency relative to β-cardiac myosin (weaker),[1],twofold
same,Normalized maximal ATPase activation (basal),[1],1.6
same,Normalized maximal ATPase activation (with 30 µM actin),[1]; 30 µM actin,2.2
same,Normalized maximal ATPase activation (basal),[2],no effect
same,Normalized maximal ATPase activation (with 30 µM actin),[2]; 30 µM actin,no effect
same,ATPase / chemomechanical activation of the truncated construct,[2]; 100 µM EMD 57033,no significant activation
same,Actin filament sliding velocity enhancement,Dd myosin-2 ΔSH3,no actin filament sliding velocity enhancement was observed

# Source: paper PMC3920478, “Small molecule-mediated refolding and activation of myosin motor function” (eLife, 2014)
